Data published in PubChem BioAssay (NCI).
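Method: 48-hour compound exposure of cells in 96-well plates, five concentrations, linear interpolation of endpoints. The concentration for full growth arrest is given as TGI.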

How the values were obtained:
Experiment in all cases: growth of human tumour cells (NCI), 48 h
ACHN renal = tested on: ACHN renal
DU-145 prostate = tested on: DU-145 prostate
HCT-116 colon = tested on: HCT-116 colon
KM12 colon = tested on: KM12 colon
LOX IMVI melanoma = tested on: LOX IMVI melanoma
NCI-H226 lung = tested on: NCI-H226 lung
NCI-H522 lung = tested on: NCI-H522 lung
OVCAR-3 ovarian = tested on: OVCAR-3 ovarian
OVCAR-5 ovarian = tested on: OVCAR-5 ovarian
OVCAR-8 ovarian = tested on: OVCAR-8 ovarian
PC-3 prostate = tested on: PC-3 prostate
SK-MEL-28 melanoma = tested on: SK-MEL-28 melanoma
SR leukemia = tested on: SR leukemia
UACC-257 melanoma = tested on: UACC-257 melanoma
UACC-62 melanoma = tested on: UACC-62 melanoma
HS 578T breast = tested on: HS 578T breast

Row | Structure (SMILES) | TGI (ACHN renal) | TGI (DU-145 prostate) | TGI (HCT-116 colon) | TGI (KM12 colon) | TGI (LOX IMVI melanoma) | TGI (NCI-H226 lung) | TGI (NCI-H522 lung) | TGI (OVCAR-3 ovarian) | TGI (OVCAR-5 ovarian) | TGI (OVCAR-8 ovarian) | TGI (PC-3 prostate) | TGI (SK-MEL-28 melanoma) | TGI (SR leukemia) | TGI (UACC-257 melanoma) | TGI (UACC-62 melanoma) | TGI (HS 578T breast)
1 | CN1CCCOC(c2ccc([N+](=O)[O-])cc2)O1 (stereo not drawn) | > 100 µM | > 100 µM | > 100 µM | > 100 µM | > 100 µM | > 100 µM | > 100 µM | > 100 µM | > 100 µM | > 100 µM | > 100 µM | > 100 µM | > 100 µM | > 100 µM | > 100 µM | –
2 | CC(C)(C)OC(=O)NC(CCC(=O)OCc1ccccc1)C(=O)NCCCO (stereo not drawn) | > 100 µM | > 100 µM | > 100 µM | > 100 µM | > 100 µM | > 100 µM | > 100 µM | > 100 µM | > 100 µM | > 100 µM | – | > 100 µM | > 100 µM | > 100 µM | > 100 µM | > 100 µM
3 | CC1=C(C)C1[N+](=O)[O-] | > 100 µM | > 100 µM | > 100 µM | > 100 µM | > 100 µM | > 100 µM | > 100 µM | > 100 µM | > 100 µM | > 100 µM | > 100 µM | > 100 µM | – | > 100 µM | > 100 µM | > 100 µM
4 | CN(C(=O)C1CCCCCC1=O)c1ccccc1Cl (stereo not drawn) | > 100 µM | > 100 µM | > 100 µM | > 100 µM | > 100 µM | > 100 µM | > 100 µM | > 100 µM | > 100 µM | > 100 µM | – | > 100 µM | – | > 100 µM | – | –
5 | COC(=O)[C@@H](NC(=O)N(CCC#N)CCCN(C(=O)N[C@H](Cc1ccccc1)C(=O)OC)c1ccccc1)C(C)C | > 100 µM | > 100 µM | > 100 µM | > 100 µM | > 100 µM | > 100 µM | > 100 µM | > 100 µM | > 100 µM | > 100 µM | > 100 µM | > 100 µM | – | > 100 µM | > 100 µM | > 100 µM
6 | CCCCCCCCCCCCCCCCOCC(CP(=O)([O-])OCC[n+]1ccccc1)OC (stereo not drawn) | – | – | 22.1 µM | 5.62 µM | – | 15.5 µM | 39.5 µM | 27.1 µM | – | 30 µM | – | 32.2 µM | 15.3 µM | 28.8 µM | 24.5 µM | –
7 | Cc1c(Cl)c(S(N)(=O)=O)cc2c1NC=NS2(=O)=O | > 100 µM | > 100 µM | > 100 µM | > 100 µM | > 100 µM | > 100 µM | > 100 µM | > 100 µM | > 100 µM | > 100 µM | > 100 µM | > 100 µM | – | > 100 µM | > 100 µM | > 100 µM
8 | Cc1ccc(C2=C(C#N)C(=O)N3CCN=C3S2)cc1 | > 100 µM | > 100 µM | > 100 µM | > 100 µM | > 100 µM | > 100 µM | > 100 µM | > 100 µM | > 100 µM | > 100 µM | > 100 µM | > 100 µM | > 100 µM | > 100 µM | > 100 µM | –
9 | CC(=O)C(CN(Cc1ccccc1)Cc1ccccc1)C(c1ccccc1)c1c(O)c2ccccc2oc1=O (stereo not drawn) | > 100 µM | – | > 100 µM | > 100 µM | > 100 µM | > 100 µM | > 100 µM | > 100 µM | > 100 µM | > 100 µM | – | – | > 100 µM | > 100 µM | > 100 µM | –
10 | CC(O)c1ccc[n+](Cc2ccccc2)c1 (stereo not drawn) | > 400 µM | – | > 400 µM | > 400 µM | > 400 µM | > 400 µM | > 400 µM | > 400 µM | > 400 µM | > 400 µM | – | > 400 µM | > 400 µM | > 400 µM | > 400 µM | –
11 | CC(C)C(Sc1nc(-c2ccccc2)c(-c2ccccc2)[nH]1)C(=O)NN (stereo not drawn) | > 100 µM | – | > 100 µM | > 100 µM | > 100 µM | > 100 µM | > 100 µM | > 100 µM | > 100 µM | > 100 µM | – | > 100 µM | – | > 100 µM | – | –
12 | Oc1cc(-c2ccc(Cl)cc2)cn2c1nc1ccccc12 | – | > 100 µM | > 100 µM | > 100 µM | > 100 µM | > 100 µM | > 100 µM | > 100 µM | – | > 100 µM | > 100 µM | > 100 µM | – | > 100 µM | > 100 µM | > 100 µM
13 | N#Cc1cc(-c2nc3c(F)cccc3s2)ccc1N | > 100 µM | > 100 µM | > 100 µM | > 100 µM | > 100 µM | > 100 µM | > 100 µM | > 100 µM | > 100 µM | > 100 µM | > 100 µM | – | – | > 100 µM | > 100 µM | > 100 µM
14 | CN(C)CC1CCCC(CN(C)C)C1=NOC(=O)c1ccccc1 (stereo not drawn) | > 100 µM | – | > 100 µM | > 100 µM | > 100 µM | > 100 µM | > 100 µM | > 100 µM | > 100 µM | > 100 µM | – | > 100 µM | > 100 µM | > 100 µM | > 100 µM | –
15 | COc1cc(/C=C2\C(=O)N(c3ccccc3Cl)C(c3ccccc3)S2(=O)=O)cc(OC)c1OC (stereo not drawn) | > 100 µM | > 100 µM | > 100 µM | 83.5 µM | 50.5 µM | > 100 µM | 46.5 µM | > 100 µM | > 100 µM | > 100 µM | – | > 100 µM | – | > 100 µM | > 100 µM | > 100 µM
16 | COc1ccc(N2C(=O)C3c4[nH]c5ccccc5c4C4CC(C)CC(C)C4C3C2=O)cc1 (stereo not drawn) | > 100 µM | – | > 100 µM | – | – | > 100 µM | > 100 µM | – | – | > 100 µM | – | > 100 µM | > 100 µM | > 100 µM | > 100 µM | –
17 | CSc1sc(=S)sc1C(=O)N(C)c1ccccc1 | > 100 µM | – | > 100 µM | > 100 µM | > 100 µM | > 100 µM | > 100 µM | > 100 µM | > 100 µM | > 100 µM | – | > 100 µM | > 100 µM | – | > 100 µM | –
